Results as given in patent US20100029657A1, “Bridged, Bicyclic Heterocyclic or Spiro Bicyclic Heterocyclic Derivatives of Pyrazolo[1, 5-A]Pyrimidines, Methods for Preparation and Uses Thereof” (Wyeth, priority 2008, published 2010).

molecular target: T1, Flag/GST-tagged recombinant human B-Raf (Homo sapiens, UniProt P15056); experiment: B-Raf kinase assay (phosphorylation of GST-MEK1, phospho-MEK1 antibody/Europium detection); format: biochemical; conditions: B-Raf IC50 Data for compounds of Formula A; read-out: Mean IC50
T1 construct: Flag; GST; made in house; host or cells: Sf9 insect cells (B-Raf); E. coli (MEK1-GST)
T1 sequence (P15056 whole entry): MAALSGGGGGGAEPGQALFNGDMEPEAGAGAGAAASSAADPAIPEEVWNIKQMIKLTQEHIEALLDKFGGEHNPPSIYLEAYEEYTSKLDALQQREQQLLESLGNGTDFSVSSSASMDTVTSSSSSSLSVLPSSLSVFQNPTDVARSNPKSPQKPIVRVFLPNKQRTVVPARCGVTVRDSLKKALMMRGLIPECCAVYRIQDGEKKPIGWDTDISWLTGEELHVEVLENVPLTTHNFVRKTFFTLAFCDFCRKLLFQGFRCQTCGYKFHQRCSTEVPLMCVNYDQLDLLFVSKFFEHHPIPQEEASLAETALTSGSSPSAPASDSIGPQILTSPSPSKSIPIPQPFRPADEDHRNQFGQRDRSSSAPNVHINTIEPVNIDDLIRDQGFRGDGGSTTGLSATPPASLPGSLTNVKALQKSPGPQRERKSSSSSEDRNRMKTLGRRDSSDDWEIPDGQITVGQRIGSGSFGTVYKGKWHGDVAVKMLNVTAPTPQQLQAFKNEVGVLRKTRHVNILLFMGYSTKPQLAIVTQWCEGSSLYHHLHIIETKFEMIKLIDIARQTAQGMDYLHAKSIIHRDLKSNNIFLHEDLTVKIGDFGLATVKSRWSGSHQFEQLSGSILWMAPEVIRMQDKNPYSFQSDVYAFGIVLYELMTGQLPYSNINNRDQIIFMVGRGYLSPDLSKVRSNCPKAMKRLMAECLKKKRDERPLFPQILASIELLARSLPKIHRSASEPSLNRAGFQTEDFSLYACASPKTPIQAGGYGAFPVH
Method: B-Raf1 Kinase Assay Procedure: B-Raf-1 is used to phosphorylate GST-MEK1.
• 1. Assay Dilution Buffer (ADB): 20 mM MOPS, pH 7.2, 25 mM β-glycerol phosphate, 5 mM EGTA, 1 mM sodium orthovanadate, 1 mM dithiothreitol, 0.01% Triton X-100. • 2. Magnesium/ATP Cocktail: ADB solution (minus Triton X-100) plus 200 μM cold ATP and 40 mM magnesium chloride. • 4. Active Kinase: Active B-Raf: Used at 0.2 nM per assay point. • 5. […] TBST—Tris (50 mM, pH 7.5), NaCl (150 mM), Tween-20 (0.05%) • 7. Anti-GST Ab (GE) • 8. Anti pMEK Ab (Upstate) • 9. Anti-rabbit Ab/Europium conjugate (Wallac).
B-Raf Assay Procedure: • 1. Added 25 μL of ADB containing B-Raf and Mek per assay (i.e. per well of a 96 well plate) • 2. Added 25 μL of 0.2 mM ATP and 40 mM magnesium chloride in Magnesuium/ATP Cocktail. • 3. Incubated for 45 minutes at RT with occasional shaking. • 4. Transferred this mixture to an anti-GST Ab coated 96 well plate (Nunc Immunosorb plates coated o/n with a-GST. Plate freshly washed 3×with TBS-T before use. • 5. Incubated o/n at […] in cold room. • 6. Washed 3× with TBST, ed Anti-Phospho MEK1 (1:1000, dilution depended upon lot) • 7. Incubated for 60 minutes at RT in a shaking incubator • 8. Washed 3× with TBST, add Anti-rabbit Ab/Europium conjugate (Wallac) (1:500, dilution depended upon lot) • 9. Incubated for 60 minutes at RT on a platform shaker. • 10. Washed plate 3× with TBS-T • 11. Added 100 μL of Wallac Delfia Enhancement Solution and agitated for 10 minutes. • 12. Read plates in Wallac Victor model Plate Reader. • 13.
The % inhibition was determined for each compound concentration.

Row | IC50 [nM] | SMILES
1 | 39.9 | c1cc(-c2c(-c3ccncc3)nn3c2nccc3[C@H]2CC[C@@H](N3C4CCC3COC4)CC2)c2cn[nH]c2c1 (relative stereo) [Example 150, 3-(1H-indazol-4-yl)-7-[cis-4-(3-oxa-8-azabicyclo[3.2.1]oct-8-yl)cyclohexyl]-2-pyridin-4-ylpyrazolo[1,5-a]pyrimidine]
2 | 6.4 | c1cc(-c2c(-c3ccncc3)nn3c2nccc3[C@H]2CC[C@H](N3C4CCC3COC4)CC2)c2cn[nH]c2c1 (relative stereo) [Example 151, 3-(1H-indazol-4-yl)-7-[trans-4-(3-oxa-8-azabicyclo[3.2.1]oct-8-yl)cyclohexyl]-2-pyridin-4-ylpyrazolo[1,5-a]pyrimidine]
3 | 6.4 | c1cc(-c2c(-c3ccncc3)nn3c2nccc3[C@H]2CC[C@@H](N3CC4CCC(C3)O4)CC2)c2cn[nH]c2c1 (relative stereo) [Example 152, 3-(1H-indazol-4-yl)-7-[cis-4-(8-oxa-3-azabicyclo[3.2.1]oct-3-yl)cyclohexyl]-2-pyridin-4-ylpyrazolo[1,5-a]pyrimidine]
4 | 3.7 | c1cc(-c2c(-c3ccncc3)nn3c2nccc3[C@H]2CC[C@H](N3CC4CCC(C3)O4)CC2)c2cn[nH]c2c1 (relative stereo) [Example 153, 3-(1H-indazol-4-yl)-7-[trans-4-(8-oxa-3-azabicyclo[3.2.1]oct-3-yl)cyclohexyl]-2-pyridin-4-ylpyrazolo[1,5-a]pyrimidine]
5 | 8.6 | Fc1ccc(-c2c(-c3ccncc3)nn3c2nccc3[C@H]2CC[C@@H](N3CC4CCC(C3)O4)CC2)c2cn[nH]c12 (relative stereo) [Example 179, 3-(7-fluoro-1H-indazol-4-yl)-7-[cis-4-(8-oxa-3-azabicyclo[3.2.1]oct-3-yl)cyclohexyl]-2-pyridin-4-ylpyrazolo[1,5-a]pyrimidine]
6 | 1.8 | Fc1ccc(-c2c(-c3ccncc3)nn3c2nccc3[C@H]2CC[C@H](N3CC4CCC(C3)O4)CC2)c2cn[nH]c12 (relative stereo) [Example 180, 3-(7-fluoro-1H-indazol-4-yl)-7-[trans-4-(8-oxa-3-azabicyclo[3.2.1]oct-3-yl)cyclohexyl]-2-pyridin-4-ylpyrazolo[1,5-a]pyrimidine]
7 | 2.1 | Fc1ccc(-c2c(-c3ccncc3)nn3c2nccc3[C@H]2CC[C@@H](N3C4CCC3COC4)CC2)c2cn[nH]c12 (relative stereo) [Example 181, 3-(7-fluoro-1H-indazol-4-yl)-7-[cis-4-(3-oxa-8-azabicyclo[3.2.1]oct-8-yl)cyclohexyl]-2-pyridin-4-ylpyrazolo[1,5-a]pyrimidine]
8 | 1.3 | Fc1ccc(-c2c(-c3ccncc3)nn3c2nccc3[C@H]2CC[C@H](N3C4CCC3COC4)CC2)c2cn[nH]c12 (relative stereo) [Example 182, 3-(7-fluoro-1H-indazol-4-yl)-7-[trans-4-(3-oxa-8-azabicyclo[3.2.1]oct-8-yl)cyclohexyl]-2-pyridin-4-ylpyrazolo[1,5-a]pyrimidine]
9 | 2 | CS(=O)(=O)N1C2CCC1CC(c1ccnc3c(-c4ccc(Cl)c(O)c4)c(-c4ccncc4)nn13)C2 (centres unmarked) [Example 14, 2-Chloro-5-{7-[8-(methylsulfonyl)-8-azabicyclo[3.2.1]oct-3-yl]-2-pyridin-4-ylpyrazolo[1,5-a]pyrimidin-3-yl}phenol]

More lines, now with the values behind:

Row | SMILES | IC50 [nM]
10 | Oc1cccc(-c2c(-c3ccncc3)nn3c(-c4ccc(NCC56CCN(CC5)CC6)nc4)ccnc23)c1 [Example 1, 3-(7-{6-[(1-Azabicyclo[2.2.2]oct-4-ylmethyl)amino]pyridin-3-yl}-2-pyridin-4-ylpyrazolo[1,5-a]pyrimidin-3-yl)phenol] | 2
11 | Oc1cccc(-c2c(-c3ccncc3)nn3c(-c4ccc(N[C@@H]5CN6CCC5CC6)nc4)ccnc23)c1 [Example 2, 3-(7-{6-[(3S)-1-Azabicyclo[2.2.2]oct-3-ylamino]pyridin-3-yl}-2-pyridin-4-ylpyrazolo[1,5-a]pyrimidin-3-yl)phenol] | 2
12 | Oc1cccc(-c2c(-c3ccncc3)nn3c(-c4ccc(N[C@H]5CN6CCC5CC6)nc4)ccnc23)c1 [Example 3, 3-(7-{6-[(3R)-1-Azabicyclo[2.2.2]oct-3-ylamino]pyridin-3-yl}-2-pyridin-4-ylpyrazolo[1,5-a]pyrimidin-3-yl)phenol] | 1
13 | COc1cc(-c2c(-c3ccncc3)nn3c(-c4ccc(NC5CN6CCC5CC6)nc4)ccnc23)ccc1Cl [Example 5, 5-(7-{6-[(3R)-1-Azabicyclo[2.2.2]oct-3-ylamino]pyridin-3-yl}-3-(4-chloro-3-methoxyphenyl)-2-pyridin-4-ylpyrazolo[1,5-a]pyrimidine] | 6
14 | Oc1cccc(-c2c(-c3ccncc3)nn3c(NCC45CCN(CC4)CC5)ccnc23)c1 [Example 6] | 57
15 | CCOC(=O)N1C2CCC1CC(c1ccnc3c(-c4cccc(OC)c4)c(-c4ccncc4)nn13)C2 (centres unmarked) [Example 7, Ethyl 3-(3-(3-methoxyphenyl)-2-(pyridin-4-yl)pyrazolo[1,5-a]pyrimidin-7-yl)-8-azabicyclo[3.2.1]octane-8-carboxylate] | 87
16 | CCOC(=O)N1C2CCC1CC(c1ccnc3c(-c4cccc(O)c4)c(-c4ccncc4)nn13)C2 (centres unmarked) [Example 8, Ethyl 3-(3-(3-hydroxyphenyl)-2-(pyridin-4-yl)pyrazolo[1,5-a]pyrimidin-7-yl)-8-azabicyclo[3.2.1]octane-8-carboxylate] | 1
17 | Oc1cccc(-c2c(-c3ccncc3)nn3c(C4CC5CCC(C4)N5)ccnc23)c1 (centres unmarked) [Example 9, 3-(7-(8-Azabicyclo[3.2.1]octan-3-yl)-2-(pyridin-4-yl)pyrazolo[1,5-a]pyrimidin-3-yl)phenol] | 4
18 | CCOC(=O)N1C2CCC1CC(c1ccnc3c(-c4ccc(Cl)c(OC)c4)c(-c4ccncc4)nn13)C2 (centres unmarked) [Example 10, Ethyl 3-(3-(4-chloro-3-methoxyphenyl)-2-(pyridin-4-yl)pyrazolo[1,5-a]pyrimidin-7-yl)-8-azabicyclo[3.2.1]octane-8-carboxylate] | 54
19 | CCOC(=O)N1C2CCC1CC(c1ccnc3c(-c4ccc(Cl)c(O)c4)c(-c4ccncc4)nn13)C2 (centres unmarked) [Example 11, Ethyl 3-(3-(4-chloro-3-hydroxyphenyl)-2-(pyridin-4-yl)pyrazolo[1,5-a]pyrimidin-7-yl)-8-azabicyclo[3.2.1]octane-8-carboxylate] | 2
20 | Oc1cc(-c2c(-c3ccncc3)nn3c(C4CC5CCC(C4)N5)ccnc23)ccc1Cl (centres unmarked) [Example 12, 5-(7-(8-Azabicyclo[3.2.1]octan-3-yl)-2-(pyridin-4-yl)pyrazolo[1,5-a]pyrimidin-3-yl)-2-chlorophenol] | 0.4
21 | CC(=O)N1C2CCC1CC(c1ccnc3c(-c4ccc(Cl)c(O)c4)c(-c4ccncc4)nn13)C2 (centres unmarked) [Example 13, 5-[7-(8-Acetyl-8-azabicyclo[3.2.1]oct-3-yl)-2-pyridin-4-ylpyrazolo[1,5-a]pyrimidin-3-yl]-2-chlorophenol] | 0.3
22 | CC(=O)Oc1cc(-c2c(-c3ccncc3)nn3c(C4CC5CCC(C4)N5C(C)=O)ccnc23)ccc1Cl (centres unmarked) [Example 15, 5-[7-(8-Acetyl-8-azabicyclo[3.2.1]oct-3-yl)-2-pyridin-4-ylpyrazolo[1,5-a]pyrimidin-3-yl]-2-chlorophenyl acetate] | 10
23 | COc1cc(-c2c(-c3ccncc3)nn3c(C4CC5CCC(C4)N5)ccnc23)ccc1Cl (centres unmarked) [Example 16, 7-(8-Azabicyclo[3.2.1]oct-3-yl)-3-(4-chloro-3-methoxyphenyl)-2-pyridin-4-ylpyrazolo[1,5-a]pyrimidine] | 9
